# From US9388313B2, “Water-insoluble coloring compound, ink, thermal transfer recording sheet, and color filter resist composition” (CANON KABUSHIKI KAISHA, priority 2012, dated 2016)
# Where two headings read alike, the source gives them in different places.
# Assays:
# [1] = Evaluation of solvent solubility of water-insoluble coloring compound (visual); assay type: physicochemical; conditions: organic solvent or mixture, thermodynamic from solid, room temperature
# Description: The solvent solubilities of Compounds (1), (4), (11), (18), (23), (26), and (28) as the water-insoluble coloring compounds and Comparative Compounds (1) and (2) were evaluated by dissolving 30 mg of each compound in 0.7 mL of each solvent, toluene, methanol, ethyl acetate, or chloroform, at room temperature, and visually observing each solution according to the following evaluation criteria:
# B: suspended material slightly remained, and […]
# [2] = Visual investigation of color filters; conditions: cyclohexanone-based resist composition
# Description: Color filter resist composition (1) of the present invention was prepared by slowly adding 22 parts of Ink (A) to a solution of 6.7 parts of an acrylic copolymer composition (weight average molecular weight Mw: 10000) composed of 40% by mass of n-butyl methacrylate, 30% by mass of acrylic acid, and 30% by mass of hydroxyethyl methacrylate in monomer ratios, 1.3 parts of dipentaerythritol pentaacrylate, and 0.4 parts of 2-benzyl-2-dimethylamino-1-(4-morpholinophenyl)-butanone (photopolymerization initiator) in 96 parts of cyclohexanone, stirring the mixture at room temperature for 3 hours, and filtering the reaction solution through a filter of 1.5 μm pore size.
# Color filter (1) was produced by spin-coating color filter resist composition (1) on a glass substrate and then drying at 90° C. for 3 min, exposure of the entire surface to light, and post-curing at 180° C.
# [3] = 30 mg in 0.7 mL chloroform, read-out: Solubility Chloroform
# [4] = 30 mg in 0.7 mL ethyl acetate, read-out: Solubility Ethyl acetate
# [5] = 30 mg in 0.7 mL methanol, read-out: Solubility Methanol
# [6] = 30 mg in 0.7 mL toluene, read-out: Solubility Toluene
"solubility [1, 3] [mg/mL]","solubility [1, 4] [mg/mL]","solubility [1, 5] [mg/mL]","solubility [1, 6] [mg/mL]",solvent solubility (demonstrated by spin-coating uniformity) [2],SMILES
> 42.9,> 42.9,> 42.9,> 42.9,–,CCCCC(CC)CN(CC(CC)CCCC)C(=O)c1ccccc1/N=N/c1c(O)[nH]c(=O)c(C(=O)NC(C)(C)C)c1C (centres unmarked) [Compound 23]
> 42.9,> 42.9,> 42.9,> 42.9,–,CCCCCc1c(/N=N/c2ccccc2C(=O)N(CC(CC)CCCC)CC(CC)CCCC)c(O)[nH]c(=O)c1C(=O)N1CCCCC1 (centres unmarked) [Compound 26]
> 42.9,> 42.9,> 42.9,> 42.9,–,CCOC(=O)c1c(C)c(/N=N/c2ccccc2C(=O)N(C2CCCCC2)C2CCCCC2)c(O)[nH]c1=O [Compound 28]
< 42.9,< 42.9,< 42.9,< 42.9,poor solvent solubilities,"CCCCC(CC)CN(CC(CC)CCCC)S(=O)(=O)c1ccc(/N=N/c2c(O)[nH]c(=O)c(C#N)c2C)cc1 (centres unmarked) [compound 1, reference compound]"
< 42.9,< 42.9,< 42.9,< 42.9,poor solvent solubilities,"CCCCC(CC)CN(CC(CC)CCCC)C(=O)c1ccc(/N=N/c2c(O)[nH]c(=O)c(C#N)c2C)cc1 (centres unmarked) [compound 2, reference compound]"

# Further lines, the compound ahead of its results:
SMILES,"solubility [1, 3] [mg/mL]","solubility [1, 4] [mg/mL]","solubility [1, 5] [mg/mL]","solubility [1, 6] [mg/mL]",solvent solubility (demonstrated by spin-coating uniformity) [2]
CCCCC(CC)CN(CC(CC)CCCC)C(=O)c1ccccc1/N=N/c1c(O)[nH]c(=O)c(C(=O)OCC)c1C (centres unmarked) [Compound 1],> 42.9,> 42.9,> 42.9,> 42.9,high solvent solubilities
CCCCC(CC)CN(CC(CC)CCCC)S(=O)(=O)c1ccccc1/N=N/c1c(O)[nH]c(=O)c(C(=O)OCC)c1C (centres unmarked) [Compound 4],> 42.9,> 42.9,> 42.9,> 42.9,–
CCCCC(CC)CN(CC(CC)CCCC)C(=O)c1cccc(/N=N/c2c(O)[nH]c(=O)c(C(=O)OCC)c2C)c1 (centres unmarked) [Compound 11],> 42.9,> 42.9,> 42.9,> 42.9,high solvent solubilities
CCCCC(CC)CN(CC(CC)CCCC)C(=O)c1ccc(/N=N/c2c(O)[nH]c(=O)c(C(=O)OCC)c2C)cc1 (centres unmarked) [Compound 18],> 42.9,> 42.9,> 42.9,> 42.9,high solvent solubilities
